Measurements: US20090203708A1, “NOVEL SUBSTITUTED-1-H-QUINAZOLINE-2,4-DIONE DERIVATIVES, PREPARATION METHOD THEREOF AND PHARMACEUTICAL COMPOSITION CONTAINING THE SAME” (Korea Research Institute of Chemical Technology, priority 2006, published 2009)

How the values were obtained:
[1] = target: 5-HT2a (human recombinant receptor, CHO-K1) (Homo sapiens, UniProt P28223); assay: Radioligand binding assay, 5-HT2a
D3 (hD3 receptor) = D3 (hD3 receptor) (Homo sapiens, UniProt P35462); assay: Radioligand binding assay, dopamine D3
[2] = target: human serotonin 5-HT6 receptor (Homo sapiens, UniProt P50406); assay: [3H]LSD binding assay for cloned 5-HT6 receptors
D1 receptor = D1 receptor (Homo sapiens, UniProt P21728); assay: Radioligand binding assay, dopamine D1
[3] = target: T1, 5-HT1a (human recombinant receptor, CHO-K1) (Homo sapiens, UniProt P08908); assay: Radioligand binding assay, 5-HT1a
T1 sequence (P08908 1-422): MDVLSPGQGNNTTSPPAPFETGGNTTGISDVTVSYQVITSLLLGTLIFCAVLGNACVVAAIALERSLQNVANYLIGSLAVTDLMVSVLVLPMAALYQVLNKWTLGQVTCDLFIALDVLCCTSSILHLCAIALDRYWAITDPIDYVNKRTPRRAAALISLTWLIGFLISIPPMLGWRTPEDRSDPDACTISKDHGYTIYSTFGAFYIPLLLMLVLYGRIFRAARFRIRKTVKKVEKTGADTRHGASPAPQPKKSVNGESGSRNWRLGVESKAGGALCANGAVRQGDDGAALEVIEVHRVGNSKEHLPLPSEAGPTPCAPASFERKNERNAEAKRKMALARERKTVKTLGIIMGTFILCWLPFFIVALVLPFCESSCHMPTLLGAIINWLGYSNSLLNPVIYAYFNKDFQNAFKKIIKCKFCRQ

[4] = target: T2, 5-HT2c (human recombinant receptor, CHO-K1) (Homo sapiens, UniProt P28335); assay: Radioligand binding assay, 5-HT2c
T2 sequence (P28335 33-458): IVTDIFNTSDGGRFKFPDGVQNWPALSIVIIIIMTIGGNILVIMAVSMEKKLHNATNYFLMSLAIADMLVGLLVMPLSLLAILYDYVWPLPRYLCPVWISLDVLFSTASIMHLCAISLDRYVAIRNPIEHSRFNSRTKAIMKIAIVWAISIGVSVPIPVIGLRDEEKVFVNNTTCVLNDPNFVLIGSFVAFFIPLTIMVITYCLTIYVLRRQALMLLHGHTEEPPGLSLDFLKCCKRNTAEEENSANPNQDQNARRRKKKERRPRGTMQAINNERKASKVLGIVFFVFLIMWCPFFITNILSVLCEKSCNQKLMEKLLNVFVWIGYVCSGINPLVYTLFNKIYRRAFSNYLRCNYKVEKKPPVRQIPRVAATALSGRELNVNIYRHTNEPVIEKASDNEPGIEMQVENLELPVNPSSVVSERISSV

[5] = target: 5-HT7 (human recombinant receptor, CHO-K1) (Homo sapiens, UniProt P34969); assay: Radioligand binding assay, 5-HT7
D2 (hD2L receptor) = target: T3, D2 (hD2L receptor) (Homo sapiens, UniProt P14416); assay: Radioligand binding assay, dopamine D2; settings: [3H] spiperone 1 nM; read-out: Binding affinity IC50 D2
T3 construct: purchased BioSignal Packard Inc., Montreal, Canada
Description: (§1) Radioligand binding assays for dopamine receptor family (D1, D2 and D3) were performed according to the protocols provided by the manufacturer of receptor membranes (BioSignal Packard Inc., Montreal, Canada). The radioligands used were [^3H] spiperone (for hD2L and hD3 receptors, 1 nM) and [^3H] YM-09151-2 (hD4.2 receptor, 0.06 nM). Briefly, the buffer used in the D1, D2 and D3 receptor binding assay was 50 mM Tris-HCl (pH 7.4), containing 10 mM MgCl2 and 1 mM EDTA, or 50 mM Tris-HCl (pH 7.4), containing 5 mM MgCl2, 5 mM EDTA, 5 mM KCl, 1.5 mM CaCl2 and 120 mM NaCl. For [^3H] YM-09151-2 receptor binding assays, 50 mM Tris-HCl (pH 7.4) containing 5 mM MgCl2, 5 mM EDTA, 5 mM KCl and 1.5 mM CaCl2, was used as a buffer. Nonspecific binding was determined with haloperidol (10 μM) for D2 and D3 and clozapine (10 μM) for D4 receptors.
(§2) Competition binding studies were carried out with 7-8 concentrations of the test compound run in duplicate tubes, and isotherms from three assays were calculated by computerized nonlinear regression analysis (GraphPad Prism Program, San Diego, […]) to yield median inhibitory concentration (IC50) values.

D4 (hD4.2 receptor) = target: T4, D4 (hD4.2 receptor) (Homo sapiens, UniProt P21917, DEL265-296); assay: Radioligand binding assay, dopamine D4; settings: [3H] YM-09151-2 0.06 nM; read-out: Binding affinity IC50 D4
T4 construct: purchased BioSignal Packard Inc., Montreal, Canada
T4 sequence (P21917 with tags, fused parts or gaps DEL265-296): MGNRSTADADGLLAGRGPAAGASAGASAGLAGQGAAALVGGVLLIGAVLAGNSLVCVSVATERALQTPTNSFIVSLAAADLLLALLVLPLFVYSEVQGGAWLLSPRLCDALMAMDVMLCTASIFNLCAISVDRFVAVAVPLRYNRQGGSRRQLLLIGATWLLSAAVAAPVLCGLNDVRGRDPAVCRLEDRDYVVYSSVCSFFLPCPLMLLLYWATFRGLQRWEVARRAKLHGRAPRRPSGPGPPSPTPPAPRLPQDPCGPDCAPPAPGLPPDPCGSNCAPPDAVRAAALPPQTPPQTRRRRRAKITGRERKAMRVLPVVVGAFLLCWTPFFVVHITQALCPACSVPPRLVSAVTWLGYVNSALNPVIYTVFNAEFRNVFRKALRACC
Description: as §1, §2

lethality = assay: Lethality (LD50) in mice; assay type: in vivo; settings: i.p.
[6] = system: apomorphine-induced PPI disruption; assay: Apomorphine-induced PPI disruption in rat
rotarod deficit = assay: Rotarod deficit in mice; assay type: in vivo
Description: In order to examine the effects of the compounds of the present invention on the central nervous system and behavior, a rotarod test was performed as follows.
Mice were placed on a plastic rod having a node 1 inch in diameter (Ugo-Basile, Milano, Italy), followed by rotating the rod at a speed of 6 rpm. 30, 60, 90 and 120 min after the administration of test compounds, the mice that fell from the rotating rod within 1 min were counted to determine rotarod deficits (%) (Dunham et al., 1957).

[7] = in vivo; cited from earlier work
[8] = system: rat maximal electroseizure threshold; settings: oral administration, literature; cited from earlier work
[9] = system: retention of a previously learned task; settings: rats, literature; cited from earlier work

Sequence of human serotonin 5-HT6 receptor (P50406 whole entry): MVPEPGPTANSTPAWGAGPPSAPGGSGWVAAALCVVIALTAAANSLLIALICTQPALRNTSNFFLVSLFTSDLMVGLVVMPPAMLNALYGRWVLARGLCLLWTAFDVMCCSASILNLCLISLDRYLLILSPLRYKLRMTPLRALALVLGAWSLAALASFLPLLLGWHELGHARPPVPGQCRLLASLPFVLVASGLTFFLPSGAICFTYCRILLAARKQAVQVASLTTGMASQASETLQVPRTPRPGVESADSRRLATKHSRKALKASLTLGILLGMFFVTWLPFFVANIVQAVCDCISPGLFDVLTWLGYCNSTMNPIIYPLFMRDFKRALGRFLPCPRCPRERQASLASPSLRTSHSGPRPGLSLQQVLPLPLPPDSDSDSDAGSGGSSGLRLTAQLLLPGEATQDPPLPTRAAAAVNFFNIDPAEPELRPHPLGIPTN
Sequence of 5-HT2a (human recombinant receptor, CHO-K1) (P28223 whole entry): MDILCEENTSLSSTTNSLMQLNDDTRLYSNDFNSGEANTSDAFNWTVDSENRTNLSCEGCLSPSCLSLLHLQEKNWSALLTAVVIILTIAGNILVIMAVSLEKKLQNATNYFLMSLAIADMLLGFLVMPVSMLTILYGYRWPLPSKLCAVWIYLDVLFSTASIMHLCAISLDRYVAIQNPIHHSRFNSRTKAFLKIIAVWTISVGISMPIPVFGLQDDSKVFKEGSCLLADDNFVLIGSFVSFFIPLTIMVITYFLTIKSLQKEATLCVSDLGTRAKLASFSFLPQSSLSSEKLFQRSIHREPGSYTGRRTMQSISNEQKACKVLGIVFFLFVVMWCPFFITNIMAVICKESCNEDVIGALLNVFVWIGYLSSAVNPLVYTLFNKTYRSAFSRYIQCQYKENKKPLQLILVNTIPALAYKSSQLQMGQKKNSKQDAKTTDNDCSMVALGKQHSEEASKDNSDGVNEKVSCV
T3 sequence (P14416 whole entry): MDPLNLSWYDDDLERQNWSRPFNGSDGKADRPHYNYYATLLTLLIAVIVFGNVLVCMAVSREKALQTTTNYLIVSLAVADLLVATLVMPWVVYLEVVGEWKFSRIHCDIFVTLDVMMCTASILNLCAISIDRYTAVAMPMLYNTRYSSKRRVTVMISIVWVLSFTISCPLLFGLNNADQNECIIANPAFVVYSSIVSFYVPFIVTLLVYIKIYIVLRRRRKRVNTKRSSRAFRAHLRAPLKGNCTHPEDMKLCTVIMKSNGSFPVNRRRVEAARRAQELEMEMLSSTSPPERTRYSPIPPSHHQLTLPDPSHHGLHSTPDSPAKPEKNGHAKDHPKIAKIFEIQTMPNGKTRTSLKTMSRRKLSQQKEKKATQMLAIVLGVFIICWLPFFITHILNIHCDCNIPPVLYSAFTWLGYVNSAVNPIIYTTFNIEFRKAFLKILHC
Sequence of 5-HT7 (human recombinant receptor, CHO-K1) (P34969 whole entry): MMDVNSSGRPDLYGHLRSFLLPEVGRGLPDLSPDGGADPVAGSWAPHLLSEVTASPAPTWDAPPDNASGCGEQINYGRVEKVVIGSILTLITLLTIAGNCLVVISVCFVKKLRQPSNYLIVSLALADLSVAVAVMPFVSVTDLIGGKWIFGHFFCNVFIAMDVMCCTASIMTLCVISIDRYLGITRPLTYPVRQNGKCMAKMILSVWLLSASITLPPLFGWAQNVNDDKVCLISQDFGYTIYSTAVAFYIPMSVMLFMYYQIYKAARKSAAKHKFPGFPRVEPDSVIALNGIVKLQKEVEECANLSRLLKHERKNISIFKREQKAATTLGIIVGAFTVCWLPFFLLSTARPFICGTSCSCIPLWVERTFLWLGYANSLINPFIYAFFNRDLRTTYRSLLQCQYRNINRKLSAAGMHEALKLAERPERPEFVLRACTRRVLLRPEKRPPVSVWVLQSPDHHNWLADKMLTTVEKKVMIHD
Sequence of D3 (hD3 receptor) (P35462 whole entry): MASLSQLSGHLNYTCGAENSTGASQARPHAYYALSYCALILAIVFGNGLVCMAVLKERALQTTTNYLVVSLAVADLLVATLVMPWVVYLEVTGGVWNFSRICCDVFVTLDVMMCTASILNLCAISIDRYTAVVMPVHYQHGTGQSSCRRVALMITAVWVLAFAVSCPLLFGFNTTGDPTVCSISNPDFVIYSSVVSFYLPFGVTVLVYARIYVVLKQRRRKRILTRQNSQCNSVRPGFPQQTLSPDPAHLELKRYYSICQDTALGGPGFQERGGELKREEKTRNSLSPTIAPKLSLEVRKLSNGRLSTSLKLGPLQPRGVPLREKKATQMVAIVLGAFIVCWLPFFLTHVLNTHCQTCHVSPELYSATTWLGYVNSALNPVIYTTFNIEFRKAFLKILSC
Sequence of D1 receptor (P21728 whole entry): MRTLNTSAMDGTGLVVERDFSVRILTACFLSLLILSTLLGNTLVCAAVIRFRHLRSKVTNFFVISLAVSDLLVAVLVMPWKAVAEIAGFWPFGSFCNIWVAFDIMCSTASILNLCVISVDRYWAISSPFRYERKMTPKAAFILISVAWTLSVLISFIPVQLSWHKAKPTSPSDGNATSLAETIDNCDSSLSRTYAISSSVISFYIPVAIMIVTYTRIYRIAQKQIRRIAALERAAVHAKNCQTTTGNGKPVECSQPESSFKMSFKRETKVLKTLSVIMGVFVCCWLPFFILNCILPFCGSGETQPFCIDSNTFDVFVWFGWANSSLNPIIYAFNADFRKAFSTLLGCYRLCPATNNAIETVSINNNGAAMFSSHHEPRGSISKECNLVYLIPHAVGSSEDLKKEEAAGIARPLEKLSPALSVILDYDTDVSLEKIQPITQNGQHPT

**Q.** For CN1CCN(c2cc(Cl)cc3c2c(=O)n(CCc2ccccc2)c(=O)n3Cc2ccccc2)CC1 [Example 42, 1-benzyl-7-chloro-5-(4-methyl-piperazin-1-yl)-3-phenethyl-1H-quinazoline-2,4-dione], which IC50 [1] is on record?
**A.** Its IC50 is 0.244 µM.

**Q.** What about the IC50 (D3 (hD3 receptor)) of the same compound?
**A.** The IC50 was 0.638 µM.

**Q.** What about the IC50 [2] of the same compound?
**A.** Its IC50 is 0.0005 µM.

**Q.** What about the melting point of the same compound?
**A.** The melting point was 136 to 138 °C.

**Q.** And the IC50 (D1 receptor)?
**A.** Its IC50 is 3.45 µM.

**Q.** And the IC50 [3]?
**A.** The IC50 was 1.3 µM.

**Q.** What about the IC50 [4] of the same compound?
**A.** The IC50 was 0.43 µM.

**Q.** What about the IC50 [5] of the same compound?
**A.** The IC50 was 7.03 µM.

**Q.** And the IC50 (D2 (hD2L receptor))?
**A.** Its IC50 is 2.5 µM.

**Q.** What about the IC50 (D4 (hD4.2 receptor)) of the same compound?
**A.** Its IC50 is greater than 10 µM.

**Q.** With C[C@H](c1ccccc1)n1c(=O)c2c(N3CCNCC3)cc(Cl)cc2n(Cc2ccccc2)c1=O [Example 68, 1-benzyl-7-chloro-3-[(R)-1-phenyl-ethyl]-5-piperazin-1yl-1H-quinazoline-2,4-dione] as the compound, how does the IC50 [2] read?
**A.** Its IC50 is 0.0068 µM.

**Q.** What about the “Lethal Degrees LD50” value (lethality) of the same compound?
**A.** Its value is 152 mg/kg, ip.

**Q.** What about the “mean startle amplitude versus apomorphine positive control” value ([6]; rat, given 30 min before apomorphine) of the same compound?
**A.** Its value is “did not induce significant difference in mean startle amplitude”.

**Q.** And the “effect of pretreatment on apomorphine-induced PPI disruption” value ([6]; rat, i.p. 30 min before apomorphine (2 mg/kg, i.p.), 2.5, 5, 10 and 20 mg/kg)?
**A.** The value was “found to inhibit apomorphine (2 mg/kg, i.p.)-induced PPI disruption”.

**Q.** And the “Rotarod Deficit TD50” value (rotarod deficit; mice, i.p. 30 min before testing)?
**A.** Its value is 122 mg/kg, ip.

**Q.** What about the rotarod dysfunction (rotarod deficit; mouse, in vivo, ip, 150 mg/kg, 120 min) of the same compound?
**A.** Its rotarod dysfunction is 100%.

**Q.** Which results are given for CN1CCN(c2cc(Cl)cc3c2c(=O)n(CCCc2ccccc2)c(=O)n3Cc2ccccc2)CC1 [Example 43, 1-benzyl-7-chloro-5-(4-methyl-piperazin-1-yl)-3-(3-phenyl-propyl)-1H-quinazoline-2,4-dione]?
**A.** IC50 [1]: 0.892 µM; IC50 (D3 (hD3 receptor)): 1.75 µM; IC50 [2]: 0.0027 µM; melting point: 55 to 63 °C; IC50 (D1 receptor): 0.961 µM; IC50 [3]: 2.64 µM; IC50 [4]: 1.42 µM; IC50 [5]: 7.76 µM; IC50 (D2 (hD2L receptor)): 5.67 µM; IC50 (D4 (hD4.2 receptor)): > 10 µM

**Q.** Which IC50 [1] does the source give for CN1CCN(c2cc(Cl)cc3c2c(=O)n(Cc2ccccc2)c(=O)n3Cc2ccccc2)CC1 [Example 10, 1,3-dibenzyl-7-chloro-5-(4-methyl-piperazin-1yl)-1H-quinazoline-2,4-dione] here?
**A.** The IC50 was 1.69 µM.

**Q.** And the IC50 (D3 (hD3 receptor))?
**A.** The IC50 was 1.55 µM.

**Q.** And the IC50 [2]?
**A.** Its IC50 is 0.0024 µM.

**Q.** What about the melting point of the same compound?
**A.** The melting point was 113 to 116 °C.

**Q.** And the IC50 (D1 receptor)?
**A.** The IC50 was 5.56 µM.

**Q.** What about the IC50 [3] of the same compound?
**A.** Its IC50 is 4.59 µM.

**Q.** What about the IC50 [4] of the same compound?
**A.** The IC50 was 4.76 µM.

**Q.** And the IC50 [5]?
**A.** The IC50 was 6.78 µM.

**Q.** What about the IC50 (D2 (hD2L receptor)) of the same compound?
**A.** The IC50 was 4.35 µM.

**Q.** And the IC50 (D4 (hD4.2 receptor))?
**A.** The IC50 was greater than 10 µM.

**Q.** For C[C@@H](c1ccccc1)n1c(=O)c2c(N3CCNCC3)cc(Cl)cc2n(Cc2ccccc2)c1=O [Example 69, 1-benzyl-7-chloro-3-[(S)-1-phenyl-ethyl]-5-piperazin-1yl-1H-quinazoline-2,4-dione], which IC50 [1] is on record?
**A.** The IC50 was 0.293 µM.

**Q.** And the IC50 (D3 (hD3 receptor))?
**A.** The IC50 was 1.8 µM.

**Q.** And the IC50 [2]?
**A.** The IC50 was 0.0027 µM.

**Q.** And the IC50 (D1 receptor)?
**A.** Its IC50 is 8.62 µM.

**Q.** What about the IC50 [3] of the same compound?
**A.** The IC50 was 5.87 µM.

**Q.** What about the IC50 [4] of the same compound?
**A.** Its IC50 is 0.429 µM.

**Q.** What about the IC50 [5] of the same compound?
**A.** The IC50 was 7.89 µM.

**Q.** What about the IC50 (D2 (hD2L receptor)) of the same compound?
**A.** The IC50 was greater than 10 µM.

**Q.** And the IC50 (D4 (hD4.2 receptor))?
**A.** Its IC50 is greater than 10 µM.

**Q.** What does the source list for COc1ccc(S(=O)(=O)Nc2cc(Br)cc(F)c2Br)cc1N1CCNCC1 [SB-357134]?
**A.** bioavailability (in words) [7]: excellent oral bioavailability; clearance (in words) [7]: low clearance rate; seizure threshold (rat maximal electroseizure threshold) [8]: potent and dose-dependent increase in seizure threshold; retention of a previously learned task in water maze [9]: significant improvement in retention of a previously learned task

**Q.** Which IC50 [2] does the source give for O=c1c2c(N3CCNCC3)cc(Cl)cc2n(Cc2ccccc2)c(=O)n1Cc1ccccc1Br [Example 60, 1-benzyl-3-(2-bromo-benzyl)-7-chloro-5-piperazin-1-yl-1H-quinazoline-2,4-dione] here?
**A.** Its IC50 is 0.0039 µM.

**Q.** And the “effect of compound alone on PPI versus vehicle control” value ([6]; rat, 2.5, 5, 10 and 20 mg/kg i.p. alone)?
**A.** The value was “no significant effects”.

**Q.** And the melting point?
**A.** Its melting point is 94 to 97 °C.

**Q.** Which results are given for O=c1c2c(N3CCNCC3)cc(Cl)cc2n(Cc2ccccc2)c(=O)n1CCCc1ccccc1 [Example 71, 1-benzyl-7-chloro-3-(3-phenyl-propyl)-5-piperazin-1-yl-1H-quinazoline-2,4-dione]?
**A.** IC50 [1]: 0.733 µM; IC50 (D3 (hD3 receptor)): 1.2 µM; IC50 [2]: 0.0018 µM; melting point: 62 to 68 °C; IC50 (D1 receptor): 2.32 µM; IC50 [3]: 0.891 µM; IC50 [4]: 1.1 µM; IC50 [5]: 3.05 µM; IC50 (D2 (hD2L receptor)): 2.72 µM; IC50 (D4 (hD4.2 receptor)): > 10 µM
